Where a SMILES comes first, the peptide text is derived from it. [ ]: non-standard residue; d: D form. The star is where a group is joined. ξ: configuration not given here. Cbz = O=C(OCc1ccccc1)*; ξP = O=C(O)C1CCCN1
Experiments:
[1] = target: T1, Flavobacterium meningosepticum PED (Elizabethkingia meningoseptica, UniProt P27028); assay: Prolyl endopeptidase inhibition assay (Flavobacterium enzyme, Z-Gly-Pro-pNA substrate); assay type: biochemical; details: pre-incubated 30 minutes at 30° C., pH 7.0
T1 construct: purchased Seikagaku Kogyo Co. Ltd
Description: (§1) Two enzymes were used: Flavobacterial enzyme for the screening and the isolation study and partially purified rabbit brain enzyme for in vitro evaluation. Ten μl of Flavobacterium meningosepticum PED,^10, 11 (Seikagaku Kogyo Co. Ltd., 0.5 unit/ml in 50 mM phosphate buffer, pH 7.0) or rabbit brain PED partially purified from the whole brain homogenate^12, 13.5 μl of a test sample and 86.5 μl of 100 mM phosphate buffer (pH 7.0) were mixed in a well of a 96-well microplate and pre-incubated for about 30 minutes at about 30° C. The reaction was started by addition of 25 μl of 2 mM carbobenzyloxyglycyl-prolyl-p-nitroanilide (Z-Gly-Pro-pNA) in 40% dioxane-100 mM phosphate buffer, pH 7.0. After about 5 minute-incubation at about 30° C., the amount of released p-nitroaniline was determined colorimetrically with a microplate autoreader (Titertek Multiskan® MMC) at 414 nm. For control, the reaction buffer was added to the reaction mixture instead of the test sample. The percentage of inhibition was calculated by the following equation: [formula]

rabbit brain PED = target: T2, rabbit brain PED (Oryctolagus cuniculus, UniProt A0A5F9CCV6); assay: Prolyl endopeptidase inhibition assay (partially purified rabbit brain enzyme, Z-Gly-Pro-pNA substrate); assay type: biochemical; details: pre-incubated 30 minutes at 30° C., pH 7.0
T2 construct: rabbit brain PED partially purified from the whole brain homogenate; from tissue; host or cells: rabbit whole brain homogenate
Description: as §1

[2] = Solubility (physico-chemical properties); assay type: physicochemical; details: for Solubility: Table 3

T2 sequence (A0A5F9CCV6 1-707): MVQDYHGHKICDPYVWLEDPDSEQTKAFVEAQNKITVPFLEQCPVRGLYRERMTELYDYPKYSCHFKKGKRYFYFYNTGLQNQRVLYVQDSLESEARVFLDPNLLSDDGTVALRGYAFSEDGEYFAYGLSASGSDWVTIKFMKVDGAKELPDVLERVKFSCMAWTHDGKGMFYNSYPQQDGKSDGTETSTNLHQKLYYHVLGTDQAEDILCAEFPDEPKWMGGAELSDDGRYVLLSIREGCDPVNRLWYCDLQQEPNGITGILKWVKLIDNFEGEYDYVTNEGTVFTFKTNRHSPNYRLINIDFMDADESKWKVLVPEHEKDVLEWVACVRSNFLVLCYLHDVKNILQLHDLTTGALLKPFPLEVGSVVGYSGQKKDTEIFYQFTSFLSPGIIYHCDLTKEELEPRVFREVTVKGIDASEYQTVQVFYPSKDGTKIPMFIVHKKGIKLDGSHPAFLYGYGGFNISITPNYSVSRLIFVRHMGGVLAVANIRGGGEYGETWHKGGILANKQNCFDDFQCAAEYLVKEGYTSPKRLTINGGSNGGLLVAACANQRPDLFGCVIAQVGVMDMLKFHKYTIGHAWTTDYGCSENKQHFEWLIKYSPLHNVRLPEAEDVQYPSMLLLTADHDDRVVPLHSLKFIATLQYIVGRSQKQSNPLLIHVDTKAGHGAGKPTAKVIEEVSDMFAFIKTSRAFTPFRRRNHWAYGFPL
T1 sequence (P27028 21-705): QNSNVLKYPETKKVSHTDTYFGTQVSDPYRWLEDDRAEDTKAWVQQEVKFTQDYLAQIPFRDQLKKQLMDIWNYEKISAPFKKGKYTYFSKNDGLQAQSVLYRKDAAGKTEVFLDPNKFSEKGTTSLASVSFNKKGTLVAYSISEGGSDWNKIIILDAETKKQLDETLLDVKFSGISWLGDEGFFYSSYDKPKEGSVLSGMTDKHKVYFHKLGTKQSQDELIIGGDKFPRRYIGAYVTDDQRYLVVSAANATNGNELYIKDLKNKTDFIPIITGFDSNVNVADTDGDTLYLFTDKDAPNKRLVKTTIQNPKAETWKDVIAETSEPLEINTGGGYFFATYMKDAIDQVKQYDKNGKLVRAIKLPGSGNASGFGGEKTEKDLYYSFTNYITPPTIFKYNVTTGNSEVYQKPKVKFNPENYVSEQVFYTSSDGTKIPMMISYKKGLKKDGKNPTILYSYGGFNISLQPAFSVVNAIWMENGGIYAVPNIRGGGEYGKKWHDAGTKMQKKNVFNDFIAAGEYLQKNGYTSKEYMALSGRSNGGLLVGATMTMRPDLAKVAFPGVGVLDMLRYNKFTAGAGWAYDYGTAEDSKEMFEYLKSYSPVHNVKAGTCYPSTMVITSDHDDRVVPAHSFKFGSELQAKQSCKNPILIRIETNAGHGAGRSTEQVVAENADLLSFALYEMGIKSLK

| SMILES | PED inhibitory activity IC50, Flavobacterium [1] [ng/mL] | PED inhibitory activity IC50, Rabbit brain (rabbit brain PED) [ng/mL] | Solubility [2] | Solubility in dimethyl sulfoxide [2] | Solubility in other organic solvents and water [2] |
| --- | --- | --- | --- | --- | --- |
| CC(C)CC/C=C/C(=O)NC1CCCNC(=O)C(CC(C)C)NC(=O)C(=O)C(C)NC1=O (stereo not drawn) [BU-4164E A] | 3.7 | 85 | Soluble in DMSO | soluble | practically insoluble |
| CCC(C)CC/C=C/C(=O)NC1CCCNC(=O)C(CC(C)C)NC(=O)C(=O)C(C)NC1=O (stereo not drawn) [BU-4164E B] | 2.1 | 31 | Soluble in DMSO | soluble | practically insoluble |
| CC(C)[C@H](NC(=O)OCc1ccccc1)C(=O)N1CCCC1C=O (stereo partly drawn) [Z-Val-prolinal, reference compound] (Cbz-Val-[ξP]-aldehyde) | 3.6 | 16 |  |  |  |

— patent US5073549A, “BU-4164E - A and B, prolyl endopeptidase inhibitors and their methods of use” (Bristol-Myers Squibb Company, priority 1990, dated 1991)
